# Assay results as given in publication PMC5443783, “Prostaglandin E2 glyceryl ester is an endogenous agonist of the nucleotide receptor P2Y6” (Scientific Reports, 2017).
# “Also recorded” adds a separate entry of the source. Numbered stars: 1 amine (or outer) side, 2 acyl side, 3 side chain; on linkers, the order of the positions; unused ones are H or OH. Bridge positions count the residues as written; N and C are the ends. Square brackets hold non-standard residues; d marks the D form. Peptide text beside a SMILES is read from it. * marks the point of attachment. Leu(3R-OH,Nα-propionyl) = CCC(=O)N[C@H](C(=O)*)[C@H](O)C(C)C; X1 = CC(C)[C@@H](O[*:3])[C@H](N[*:1])C(=O)[*:2]; NMeT = CN[C@H](C(=O)O)[C@@H](C)O; dPhLac = O=C(O)[C@H](O)Cc1ccccc1; NMeA = CN[C@@H](C)C(=O)O; NMeDha = C=C(NC)C(=O)O
# Experiments:
# [1] = target: T1, cannabinoid receptor 2 (Cnr2) (Homo sapiens, UniProt P34972); assay: Intracellular Ca2+ measurement in CNR2-transfected HEK293 cells; type: cell-based; conditions: 200 nM of 2-AG, Fig. 2c
# T1 construct: expressed in transfected cells; host or cells: HEK293
# T1 sequence (P34972 whole entry): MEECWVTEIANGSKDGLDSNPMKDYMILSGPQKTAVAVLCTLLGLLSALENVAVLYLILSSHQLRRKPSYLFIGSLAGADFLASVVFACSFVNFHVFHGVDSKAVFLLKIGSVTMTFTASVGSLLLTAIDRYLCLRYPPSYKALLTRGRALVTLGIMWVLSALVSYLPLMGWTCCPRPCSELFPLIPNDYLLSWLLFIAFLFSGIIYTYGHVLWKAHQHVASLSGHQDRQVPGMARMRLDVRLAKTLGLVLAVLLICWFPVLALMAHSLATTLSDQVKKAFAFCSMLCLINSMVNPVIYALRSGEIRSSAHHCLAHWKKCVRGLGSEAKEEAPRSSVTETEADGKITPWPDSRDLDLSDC
# Protocol: RAW264.7 cells were grown in DMEM supplemented with 10% FBS, A7r5 (rat […]) cells in DMEM with 10% FBS, and A431 (human squamous carcinoma) cells in RPMI supplemented with 10% FBS. All cell lines were grown at 37 °C in a humidified 5% CO2 incubator. For functional assays, receptor constructs were heterologously expressed in human embryonic kidney (HEK293) cells upon transient or stable transfection. Cells were grown in DMEM/F12 supplemented with 10% FBS, 100 units/ml penicillin, and 100 µg/ml streptomycin. For the cAMP-inhibition assay, ERK1/2 phosphorylation assay, and Ca^2+ mobilization assay, cells were split into 96-well plates (2.0 × 10^4 cells/well) and transfected with 250 ng vector construct using MACSfectin™ (Miltenyi Biotec, Germany) according to manufacturer’s protocol. Empty vector (mock) served as the negative control. For siRNA experiments, cells were seeded in 6-well plates (4.0 × 10^5 and 6.0 × 10^5 cells/well for RAW264.7 and H1819, respectively). […]
# For fluorometric measurements of intracellular Ca^2+ levels with the FlexStationII instrument (Molecular Devices), RAW264.7 and H1819 cells were seeded into 96-well plates (3.0 × 10^4 cells/well) 24 h prior to assay. […] Fold-response was calculated by RFUmax − RFUmin (ligand)/RFUmax − RFUmin (vehicle). EC50 values were calculated by using GraphPad Prism6 software (GraphPad, USA).
# P2Y1 = target: T2, P2Y1 (Homo sapiens, UniProt P47900); assay: Intracellular Ca2+ release in HEK293 cells transfected with P2RY1; type: cell-based; conditions: HEK293 transfected with P2RY1, Fig. 3f
# T2 construct: expressed in transfected cells; host or cells: HEK293
# T2 sequence (P47900 whole entry, species assumed): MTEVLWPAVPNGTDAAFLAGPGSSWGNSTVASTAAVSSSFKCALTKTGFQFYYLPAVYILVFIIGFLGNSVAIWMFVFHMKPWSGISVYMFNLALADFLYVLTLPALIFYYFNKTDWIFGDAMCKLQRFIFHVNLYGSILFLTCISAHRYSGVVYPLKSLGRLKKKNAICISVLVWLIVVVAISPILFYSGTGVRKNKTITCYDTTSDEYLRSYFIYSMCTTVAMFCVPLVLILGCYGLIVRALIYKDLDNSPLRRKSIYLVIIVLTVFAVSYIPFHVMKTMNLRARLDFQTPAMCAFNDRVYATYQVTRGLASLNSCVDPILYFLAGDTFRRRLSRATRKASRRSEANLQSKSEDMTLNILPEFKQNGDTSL
# Protocol: (§1) For fluorometric measurements of intracellular Ca^2+ levels with the FlexStationII instrument (Molecular Devices), RAW264.7 and H1819 cells were seeded into 96-well plates (3.0 × 10^4 cells/well) 24 h prior to assay. Ca^2+ measurements with transiently transfected HEK293 cells were performed 48 h after transfection. Cells were loaded with 200 µl Calcium 5 reagent (Explorer Kit, Molecular Devices, USA) for 60 min at 37 °C, and the assay was performed as described. Agonists and inhibitors were solved in DMSO (100x) and diluted […] in 96-well compound plates containing HBSS. 50 µl of compound solution were added to the assay plate resulting in final concentration of 1% DMSO. Fold-response was calculated by RFUmax − RFUmin (ligand)/RFUmax − RFUmin (vehicle). EC50 values were calculated by using GraphPad Prism6 software (GraphPad, USA).
# P2Y12 = target: T3, P2Y12 (Homo sapiens, UniProt Q9H244); assay: Intracellular Ca2+ release in HEK293 cells transfected with P2RY12; type: cell-based; conditions: HEK293 transfected with P2RY12, Fig. 3f
# T3 construct: expressed in transfected cells; host or cells: HEK293
# T3 sequence (Q9H244 whole entry, species assumed): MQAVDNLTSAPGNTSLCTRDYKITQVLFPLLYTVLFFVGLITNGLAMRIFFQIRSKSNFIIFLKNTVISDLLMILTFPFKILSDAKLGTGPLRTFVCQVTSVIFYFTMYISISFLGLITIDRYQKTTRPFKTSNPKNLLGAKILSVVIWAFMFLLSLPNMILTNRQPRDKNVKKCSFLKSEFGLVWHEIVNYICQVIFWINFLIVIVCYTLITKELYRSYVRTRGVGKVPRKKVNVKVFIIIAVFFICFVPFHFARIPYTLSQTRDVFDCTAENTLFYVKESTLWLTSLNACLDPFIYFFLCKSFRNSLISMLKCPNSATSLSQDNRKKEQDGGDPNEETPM
# Protocol: as §1
# P2Y6 [2] = target: T4, P2Y6 (Homo sapiens, UniProt Q15077); assay: Intracellular Ca2+ measurement in HEK293 cells transfected with P2RY6; type: cell-based; design: expressed in transfected cells; host or cells: HEK293; conditions: HEK293 stably transfected with P2RY6, Fig. 5c,d
# T4 sequence (Q15077 whole entry): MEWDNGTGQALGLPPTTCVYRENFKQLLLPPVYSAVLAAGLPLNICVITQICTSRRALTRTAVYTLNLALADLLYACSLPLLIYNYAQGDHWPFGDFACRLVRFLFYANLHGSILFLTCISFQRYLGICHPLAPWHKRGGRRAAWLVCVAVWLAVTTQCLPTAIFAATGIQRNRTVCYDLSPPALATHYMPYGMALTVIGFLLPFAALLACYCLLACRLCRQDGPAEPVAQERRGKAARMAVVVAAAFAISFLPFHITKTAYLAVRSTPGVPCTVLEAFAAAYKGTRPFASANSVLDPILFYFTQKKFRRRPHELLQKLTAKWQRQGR
# Protocol: RAW264.7 cells were grown in DMEM supplemented with 10% FBS, A7r5 (rat […]) cells in DMEM with 10% FBS, and A431 (human squamous carcinoma) cells in RPMI supplemented with 10% FBS. All cell lines were grown at 37 °C in a humidified 5% CO2 incubator. For functional assays, receptor constructs were heterologously expressed in human embryonic kidney (HEK293) cells upon transient or stable transfection. Cells were grown in DMEM/F12 supplemented with 10% FBS, 100 units/ml penicillin, and 100 µg/ml streptomycin. For the cAMP-inhibition assay, ERK1/2 phosphorylation assay, and Ca^2+ mobilization assay, cells were split into 96-well plates (2.0 × 10^4 cells/well) and transfected with 250 ng vector construct using MACSfectin™ (Miltenyi Biotec, Germany) according to manufacturer’s protocol. Empty vector (mock) served as the negative control. For siRNA experiments, cells were seeded in 6-well plates (4.0 × 10^5 and 6.0 × 10^5 cells/well for RAW264.7 and H1819, respectively). RAW264.7 and H1819 cells were transfected with 150 pMol of mP2RY6 siRNA and hP2RY6 siRNA (Santa Cruz Biotechnology, USA), respectively, using Viromer® Blue (Lipocalyx, Germany). As a negative control, control siRNA-A (Santa Cruz Biotechnology, USA) was used. FITC-labelled siRNA served as a transfection control.
# To generate a cell line stably expressing P2Y6, HEK293 cells were seeded in 6-well plates (7.5 × 10^5 cells/well) and transfected with 3 µg vector using MACSfectin™ as transfection regent according to the manufacturer’s protocol. The pIRES-eGFP vector served as negative control. Stably transfected HEK293 cells were cultured in the presence of geneticin (500 µg/ml) for selection.
# as §1
# P2Y6 [3] = target: T4, P2Y6; assay: Agonist-induced receptor internalization, cell surface ELISA; type: cell-based; design: expressed in transfected cells; host or cells: HEK293; conditions: Fig. 5e
# Protocol: To estimate cell surface expression of heterologously expressed receptors carrying an N-terminal HA tag, an indirect cellular ELISA was used[57]. To determine the endogenous cell surface expression of P2Y6, the same ELISA procedure was performed with minor modifications. Briefly, after 4% paraformaldehyde fixation and blocking with 10% FBS, cells were incubated with the primary anti-P2Y6 antibody (sc-15215; Santa Cruz Biotechnology, USA) in 1:1,000 dilution for 1 h. After washing with PBS, cells were incubated with peroxidase-conjugated secondary antibody anti-goat IgG (sc-2020, Santa Cruz Biotechnology, USA) in 1:5,000 dilutions.
# P2Y6 [4] = target: T4, P2Y6; assay: Functional readouts at P2Y6, summary statements; type: cell-based; conditions: Fig. 5a–d
# P2Y6 [5] = target: T4, P2Y6; assay: IP1 accumulation assay in HEK293 cells transfected with wildtype P2RY6; type: cell-based; design: expressed in transfected cells; host or cells: HEK293
# Protocol: To measure intracellular IP3 the HitHunter® Inositol (1,4,5) Triphosphate Assay (DiscoveRx, USA) was used according to manufacturer′s protocol. HEK293 cells stably transfected with hP2RY6 were seeded in a 384-well Black microtiter plate (15,000 cells/well) (Greiner Bio One, Germany) and incubated with indicated concentrations of UDP and PGE2-G for 20 seconds. Reaction was stopped by adding 5 µl 0.2 N perchloric acid and measurement of IP3 was performed with the Fusion AlphaScreen multilabel reader (PerkinElmer Life Sciences) according to manufacturer′s protocol. To measure IP1, HEK293 cells expressing wildtype and mutant P2Y6 were seeded into 384-well plates (5,000 cells/well) 24 h prior assay. After aspiration of the medium, cells were incubated with indicated concentrations of agonists/antagonist for 1 h. IP1 measurements using the IP-one HTFR® assay kit (Cisbio assays, USA) were performed according to manufacturer′s protocol. The assays were performed with a final concentration of 1% DMSO.
# RAW264.7 cells = conditions: RAW264.7 cells; cited from earlier work
# P2Y6 [6] = target: T4, P2Y6; assay: ERK1/2 phosphorylation (AlphaScreen SureFire) in P2RY6-transfected HEK293 cells; type: cell-based; design: expressed in transfected cells; host or cells: HEK293; conditions: HEK293 cells stably transfected with P2RY6, Fig. 3e
# Protocol: Cells were transferred to serum-free medium 2 h prior to assay. Ligands and controls (10 µl of 10× concentrates) were added to 90 µl medium and incubated for 5 min at 37 °C. The final concentration of DMSO was 0.2%. The reaction was stopped by aspiration of the medium and addition of 50 µl lysis buffer (PerkinElmer Life Sciences). To measure ERK1/2 phosphorylation, the AlphaScreen® SureFire ERK 1/2 assay kit (PerkinElmer Life Sciences) was used with the high sensitivity protocol. Phosphorylated ERK1/2 was measured in 384-well white OptiPlate microplates (PerkinElmer Life Sciences) with the Fusion AlphaScreen multilabel reader (PerkinElmer Life Sciences).
smiles,measurement,setting,value
"CCCCC/C=C\C/C=C\C/C=C\C/C=C\CCCC(=O)OC(CO)CO [2-AG, 2-arachidonoylglycerol]",effect on intracellular Ca2+,[1],robust intracellular Ca^2+ increase; also recorded: elevated intracellular Ca^2+
Nc1ncnc2c1ncn2[C@@H]1O[C@H](COP(=O)(O)OP(=O)(O)O)[C@@H](O)[C@H]1O [ADP],Ca2+ release,P2Y1,led to Ca^2+ release
same,Ca2+ release,P2Y12,led to Ca^2+ release
S=C=Nc1cccc(NC(=S)NCCCCNC(=S)Nc2cccc(N=C=S)c2)c1 [MRS2578],effect of antagonist on UDP- and PGE2-G-triggered Ca2+ release,P2Y6 [2],"same effects; also recorded: reduced both, the efficacies and potencies"
same,effect of antagonist on agonist-induced internalization,P2Y6 [3],blocked the internalization
same,mode of antagonism,P2Y6 [4],antagonist with mixed properties (competitive and non-competitive)
same,effect of antagonist on UDP- and PGE2-G-triggered IP1 accumulation,"P2Y6 [5]; HEK293 stably transfected with P2RY6, increasing antagonist concentrations, Fig. 5a,b","reduced both the efficacies and potencies; also recorded: reduced both, the efficacies and potencies"
CCCCC[C@H](O)/C=C/[C@H]1C(=O)C[C@H](O)[C@@H]1C/C=C\CCCC(=O)OC(CO)CO [PGD2-G],effect in Ca2+ measurements,RAW264.7 cells,no effect
CCCCC[C@H](O)/C=C/[C@H]1[C@H](O)CC(=O)[C@@H]1C/C=C\CCCC(=O)O [PGE2],effect in Ca2+ measurements,RAW264.7 cells,no effect
same,ERK1/2 phosphorylation response,P2Y6 [6],no response
CCCCC[C@H](O)/C=C/[C@@H]1[C@@H](C/C=C\CCCC(=O)OC(CO)CO)[C@@H](O)C[C@H]1O [PGF2α-G],effect in Ca2+ measurements,RAW264.7 cells,no effect
same,ERK1/2 phosphorylation response,P2Y6 [6],no response
CCCCC[C@H](O)/C=C/[C@@H]1[C@@H](C/C=C\CCCC(=O)O)[C@@H](O)C[C@H]1O [PGF2α],effect in Ca2+ measurements,RAW264.7 cells,led to Ca^2+ release
same,ERK1/2 phosphorylation response,P2Y6 [6],no effect
"C=C1C(=O)N[C@@H](C)C(=O)N(C)[C@@H](C)C(=O)N[C@@H]([C@H](OC(=O)[C@@H](NC(=O)CC)[C@H](O)C(C)C)C(C)C)C(=O)N(C)[C@@H]([C@@H](C)OC)C(=O)O[C@H](C(C)C)[C@H](NC(C)=O)C(=O)O[C@H](Cc2ccccc2)C(=O)N1C [UBO] (Ac-[X1][dPhLac][NMeDha]A[NMeA][X1](Leu(3R-OH,Nα-propionyl))[NMeT](Me); ester 1-C)",block of IP formation after stimulation with UDP and PGE2-G,"P2Y6 [5]; IP1 accumulation, P2RY6-transfected HEK293, Fig. 3d",significantly block
